The record followed here is US20200368315A1, “ANTIMICROBIAL PEPTIDES AND ADMIXTURES THEREOF SHOWING ANTIMICROBIAL ACTIVITY AGAINST GRAM-NEGATIVE PATHOGENS” (priority 2017, published 2020).

Assay [1] relates to E. aerogenes LMG 02094. The assay is described as follows: microbe, parasite or virus in culture. The class given is cell-based, Enterobacter aerogenes. The note with it: LMG 02094. The method, then:
(§1) Escherichia coli, Klebsiella pneumoniae, Pseudomonas aeruginosa, Acinetobacter baumannii, Enterobacter aerogenes were grown in Luria-Bertani (LB) broth shaken (200 rpm) or on LB agar at 37° C. […] MICs tests were performed in duplicate by a liquid growth inhibition microdilution assays in sterilized polypropylene microtiter plates according to Wiegand and […] [27]. […] The suspension was diluted in a ratio of 1:100 using Mueller Hinton Broth (MHB) and the final inoculum is 5*10^5 CFU/mL. […] The antimicrobials were diluted serially by 1/2 one by one and 50 uL diluted bacterial suspension were added to each well to make the final volume to be 100 uL. Growth control was accomplished by remove 10 uL from well 11 and dilute 1000 times to plate 1/10 suspension on the solid medium. […] The number of colonies on the control agar plate should be around 50 to ensure the concentration of the inoculum and the effectiveness of the experiment. The lowest concentration of the antimicrobials that inhibits visible growth of the indicator is identified as MIC.

In assay [2] the test system is E. coli LMG15862. Put plainly: microbe, parasite or virus in culture. It is filed as cell-based, Escherichia coli. To be noted: L-form GNP; E. coli LMG15862; Table 6. How it is done:
as §1

Assay [3] deals with A. baumannii LMG01041. Put plainly: microbe, parasite or virus in culture. The class given is cell-based, Acinetobacter baumannii. The note with it: LMG01041. How it is done: as §1
Assay [4] has as its system K. pneumoniae LMG20218. Put plainly: microbe, parasite or virus in culture. To be noted: LMG20218. The class given is cell-based, Klebsiella pneumoniae. The method, then:
as §1

For assay [5], the system named is P. aeruginosa LMG 6395. The assay is described as follows: microbe, parasite or virus in culture. The class given is cell-based, Pseudomonas aeruginosa. The note with it: LMG 6395. How it is done:
as §1

The test system of assay [6] is A. baumannii LMG01041. The class given is cell-based, Acinetobacter baumannii. To be noted: for MICb: MIC of GNP alone; for MICbc: MIC of GNP when used with the MICac concentration of nisin; for MICac: MIC of nisin in combination with the GNP at the MICbc concentration. The text has this:
(§2) The test of synergistic effect was processed by conducting standard chequerboard broth microdilution assays. Nisin (Drug X) was loaded two fold serially diluted from row 1 to 10 in X-axis while GNPs (Drug Y) were loaded in eight two fold serially diluted concentrations from line A to H in Y-axis (FIG. 1). The original concentrations of peptides were MICs of each. Row 11 are used as growth control with no peptide was included, while row 12 with MHB medium-only wells was included as a sterility control as referred before. 50 uL fresh bacterial suspension was added to well 1-11 and final volume of each well on the plate is 100 uL.
(§3) To determine whether the combination therapy is additive, synergistic or antagonistic, fractional inhibitory concentration (FIC) indices were calculated. FICI=FICa+FICb=MICac/MICa+MICbc/MICb. The MICa/MICb is the MIC of compound A/B alone. MICac is the MIC of compound A in combination with compound B and MICbc is the MIC of compound B when it was combination with compound A. […]. FICa is FIC of compound A while FICb is FIC of compound B. The FICI is interpreted as follows: synergistic, FICI≤0.5; additive, 0.5<FICI<1; indifferent, 1<FICI<2; antagonistic, FICI>2.

Assay [7] deals with E. aerogenes LMG 02094. The class given is cell-based, Enterobacter aerogenes. The note with it: for MICb: MIC of GNP alone; for MICbc: MIC of GNP when used with the MICac concentration of nisin; for MICac: MIC of nisin in combination with the GNP at the MICbc concentration.
Text: as §2, §3

Assay [8] deals with P. aeruginosa LMG 6395. It is filed as cell-based, Pseudomonas aeruginosa. The note with it: for MICb: MIC of GNP alone; for MICbc: MIC of GNP when used with the MICac concentration of nisin; for MICac: MIC of nisin in combination with the GNP at the MICbc concentration.
Text: as §2, §3

The subject of assay [9] is E. coli LMG15862. It is filed as cell-based, Escherichia coli. To be noted: for MICb: MIC of GNP alone; for MICbc: MIC of GNP when used with the MICac concentration of nisin; for MICac: MIC of nisin in combination with the GNP at the MICbc concentration.
Text: as §2, §3

Assay [10] deals with K. pneumoniae LMG20218. The note with it: for MICb: MIC of GNP alone; for MICbc: MIC of GNP in combination with vancomycin at the MICac concentration; for MICac: MIC of vancomycin in combination with the GNP at the MICbc concentration. How it is done: (§4) The test of synergistic effect was processed by conducting standard chequerboard broth microdilution assays. […] Row 11 are used as growth control with no peptide was included, while row 12 with MHB medium-only wells was included as a sterility control as referred before. 50 uL fresh bacterial suspension was added to well 1-11 and final volume of each well on the plate is 100 uL.
(§5) The test of synergistic effect was processed as method 1.4.
as §3

Assay [11] deals with E. coli LMG15862. The note with it: for MICb: MIC of GNP alone; for MICbc: MIC of GNP in combination with vancomycin at the MICac concentration; for MICac: MIC of vancomycin in combination with the GNP at the MICbc concentration. How it is done: as §4, §5, §3
In assay [12] the test system is P. aeruginosa LMG 6395. To be noted: for MICb: MIC of GNP alone; for MICbc: MIC of GNP in combination with vancomycin at the MICac concentration; for MICac: MIC of vancomycin in combination with the GNP at the MICbc concentration. How it is done:
as §4, §5, §3

For assay [13], the system named is A. baumannii LMG01041. The note with it: for MICb: MIC of GNP alone; for MICbc: MIC of GNP in combination with vancomycin at the MICac concentration; for MICac: MIC of vancomycin in combination with the GNP at the MICbc concentration. How it is done: as §4, §5, §3
In assay [14] the test system is E. aerogenes LMG 02094. The note with it: for MICb: MIC of GNP alone; for MICbc: MIC of GNP in combination with vancomycin at the MICac concentration; for MICac: MIC of vancomycin in combination with the GNP at the MICbc concentration. How it is done: as §4, §5, §3
Assay [15] deals with K. pneumoniae LMG20218. The class given is cell-based, Klebsiella pneumoniae. To be noted: for MICb: MIC of GNP alone; for MICbc: MIC of GNP when used with the MICac concentration of nisin; for MICac: MIC of nisin in combination with the GNP at the MICbc concentration.
Text: as §2, §3

Read-outs that look alike come from different tables or passages of the source. No end group written: not given here. Where only a bound is given, the exact number is not on record here.

Take GIGKHVGKALKGLKGLLKGLGEC [GNP-7]: the “MICb (MIC of GNP alone)” value in assay [1] came to 8 µM; in assay [3] it was 2 µM; in assay [4], 12 µM; in assay [5], 13 µM. Also, the “MICb (GNP concentration when used alone)” value in assay [2] is 6 µM.

As for KIVQRIKKWLR-NH2 [GNP8-2], the MICb in assay [6] is 128 µM; in [7] it was 256 µM; in assay [8], 16 µM; in assay [9], 16 µM; in [10], 32 µM; in assay [11] it was 16 µM. For the same substance, the MICb was found to be 16 µM in assay [12], 128 µM in assay [13], 256 µM in [14] and 32 µM in assay [15]. Moreover, the MICbc in assay [6] worked out at 16 µM; in assay [7] it was 1 µM; in assay [8], 4 µM; in [9], 2 µM; in [10], 8 µM; in [11] it was 2 µM. In addition, the MICbc amounted to 2 µM in assay [12], 4 µM in assay [13], 16 µM in assay [14] and 2 µM in assay [15]. The MICac in assay [6] came out at 0.375 µM; in assay [7], 4 µM; in assay [8], 4.5 µM; in [9] it was 1.5 µM; in assay [10], 16 µM; in [11] it was 4 µM. The MICac stood at 16 µM in assay [12], 4 µM in assay [13], 12 µM in [14] and 0.75 µM in [15].

Take RIRKRIKKWLR-NH2 [GNP8-4]: the MICb in assay [6] is more than 256 µM; in assay [7], more than 256 µM; in assay [8] it was 16 µM; in assay [9] it was 16 µM; in assay [10], more than 256 µM; in [11] it was 16 µM. Besides, the MICb in [12] is 16 µM; in assay [13] it was more than 256 µM; in assay [14], more than 256 µM; in assay [15] it was more than 256 µM. Further, the MICbc in assay [8] came out at 4 µM; in assay [9] it was 2 µM; in assay [11], 2 µM; in assay [12], 8 µM. In addition, the MICac in assay [8] was 2.25 µM; in [9], 3 µM; in assay [11] it was 4 µM; in [12], 4 µM.

Turning to RIVQRIKKWL-NH2 [GNP8-1], the MICb in assay [6] was 128 µM; in assay [7], more than 256 µM; in [8], 16 µM; in [9], 32 µM; in assay [10] it was 64 µM; in [11], 32 µM. The MICb was 16 µM in assay [12], 128 µM in assay [13], more than 256 µM in assay [14] and 64 µM in assay [15]. The MICbc was 16 µM in assay [6]; 4 µM in [8]; 4 µM in assay [9]; 8 µM in assay [10]; 4 µM in [11]; 2 µM in assay [12]. The MICbc in assay [13] turned out to be 16 µM; in assay [15] it was 1 µM. Also, the MICac was determined as 0.375 µM in [6]; 4.5 µM in assay [8]; 1.5 µM in assay [9]; 16 µM in assay [10]; 8 µM in [11]; 16 µM in assay [12]. Besides, the values for the MICac in assay [13] and in [15] were 1 µM and 3 µM, respectively.

Turning to RIKRRIKKWLR-NH2 [GNP8-5], the MICb in assay [6] is more than 256 µM; in [7], more than 256 µM; in assay [8], 32 µM; in [9], 24 µM; in assay [10], more than 256 µM; in [11], 24 µM. Further, the MICb is 32 µM in assay [12], more than 256 µM in assay [13], more than 256 µM in [14] and more than 256 µM in assay [15]. Further, the MICbc in [8] amounted to 8 µM; in assay [9], 3 µM; in assay [11], 3 µM; in [12] it was 8 µM. Moreover, the MICac was determined as 9 µM in [8], 3 µM in assay [9], 4 µM in [11] and 16 µM in [12].

With RIVQRIKKWR-NH2 [GNP8-6], the MICb was more than 256 µM in assay [6]; more than 256 µM in assay [7]; more than 256 µM in assay [8]; 256 µM in [9]; more than 256 µM in [10]; 256 µM in [11]. Further, the MICb in assay [12], in assay [13], in [14] and in assay [15] was more than 256 µM in each case. Further, the MICbc in [9] worked out at 64 µM; in assay [11], 16 µM. Moreover, the MICac in assay [9] stood at 6 µM; in assay [11], 8 µM.

With AIVQRIKKWLR-NH2 [GNP8-3], the MICb in assay [6] stood at 128 µM; in assay [7] it was 128 µM; in assay [8], 16 µM; in [9], 12 µM; in assay [10] it was 24 µM; in assay [11], 12 µM. Moreover, the MICb in assay [12] was determined as 16 µM; in assay [13], 128 µM; in assay [14] it was 128 µM; in assay [15], 24 µM. Further, the MICbc in assay [6] came out at 32 µM; in [7], 8 µM; in assay [8] it was 8 µM; in assay [9], 1.5 µM; in assay [10] it was 3 µM; in assay [11], 3 µM. The MICbc was determined as 8 µM in assay [12], 8 µM in assay [13], 16 µM in assay [14] and 3 µM in assay [15]. Besides, the MICac in assay [6] stood at 0.375 µM; in assay [7], 4 µM; in assay [8], 4.5 µM; in assay [9], 1.5 µM; in assay [10] it was 16 µM; in assay [11], 4 µM. The MICac in assay [12] was found to be 4 µM; in assay [13], 4 µM; in assay [14] it was 12 µM; in assay [15], 1.5 µM.
